Assay results published in ChEMBL document CHEMBL3045792, “Synthesis, antimicrobial activity, and molecular modeling of novel 4-(3-(4-benzylpiperazin-1-yl)propoxy)-7-methoxy-3-substituted phenyl-2H-chromen-2-one” (2013).
Active and inactive are the calls of the source. The calls are words filed in the database; no cut-off is given here.

Experiments:
Type in all cases: functional
Fusarium oxysporum [1] = test: Antifungal activity against Fusarium oxysporum assessed as growth inhibition at 600 ug/ml; settings: read-out: IZ
Fusarium oxysporum [2] = test: Antifungal activity against Fusarium oxysporum assessed as growth inhibition at 300 ug/ml; settings: read-out: IZ
Klebsiella aerogenes [3] = test: Antibacterial activity against Enterobacter aerogenes assessed as growth inhibition at 600 ug/ml by NCCLS […] method
Candida albicans [4] = test: Antifungal activity against Candida albicans assessed as growth inhibition at 900 ug/ml; settings: read-out: IZ
Fusarium oxysporum [5] = test: Antifungal activity against Fusarium oxysporum assessed as growth inhibition at 900 ug/ml; settings: read-out: IZ
Proteus mirabilis [6] = test: Antibacterial activity against Proteus mirabilis assessed as growth inhibition at 900 ug/ml by NCCLS […] method; settings: read-out: IZ
Exserohilum rostratum [7] = test: Antifungal activity against Setosphaeria rostrata assessed as growth inhibition at 600 ug/ml; settings: read-out: IZ
Klebsiella pneumoniae [8] = test: Antibacterial activity against Klebsiella pneumoniae assessed as growth inhibition at 600 ug/ml by NCCLS […] method; settings: read-out: IZ
Colletotrichum falcatum [9] = test: Antifungal activity against Glomerella tucumanensis assessed as growth inhibition at 300 ug/ml; settings: read-out: IZ
Priestia megaterium [10] = test: Antibacterial activity against Bacillus megaterium assessed as growth inhibition at 600 ug/ml by NCCLS […] method; settings: read-out: IZ
Colletotrichum falcatum [11] = test: Antifungal activity against Glomerella tucumanensis assessed as growth inhibition at 600 ug/ml; settings: read-out: IZ
Streptococcus pyogenes [12] = test: Antibacterial activity against Streptococcus pyogenes assessed as growth inhibition at 900 ug/ml by NCCLS […] method; settings: read-out: IZ
Candida albicans [13] = test: Antifungal activity against Candida albicans assessed as growth inhibition at 300 ug/ml; settings: read-out: IZ
Staphylococcus aureus [14] = test: Antibacterial activity against Staphylococcus aureus assessed as growth inhibition at 900 ug/ml by NCCLS […] method; settings: read-out: IZ
Proteus mirabilis [15] = test: Antibacterial activity against Proteus mirabilis assessed as growth inhibition at 600 ug/ml by NCCLS […] method; settings: read-out: IZ
Bacillus pumilus [16] = test: Antibacterial activity against Bacillus pumilus assessed as growth inhibition at 600 ug/ml by NCCLS […] method
Staphylococcus aureus [17] = test: Antibacterial activity against Staphylococcus aureus assessed as growth inhibition at 600 ug/ml by NCCLS […] method; settings: read-out: IZ
Bacillus pumilus [18] = test: Antibacterial activity against Bacillus pumilus assessed as growth inhibition at 900 ug/ml by NCCLS […] method
Proteus vulgaris [19] = test: Antibacterial activity against Proteus vulgaris assessed as growth inhibition at 900 ug/ml by NCCLS […] method; settings: read-out: IZ
Priestia megaterium [20] = test: Antibacterial activity against Bacillus megaterium assessed as growth inhibition at 900 ug/ml by NCCLS […] method; settings: read-out: IZ
Escherichia coli [21] = test: Antibacterial activity against Escherichia coli assessed as growth inhibition at 900 ug/ml by NCCLS […] method; settings: read-out: IZ
Candida albicans [22] = test: Antifungal activity against Candida albicans assessed as growth inhibition at 1200 ug/ml; settings: read-out: IZ
Fusarium oxysporum [23] = test: Antifungal activity against Fusarium oxysporum assessed as growth inhibition at 1200 ug/ml; settings: read-out: IZ
Colletotrichum falcatum [24] = test: Antifungal activity against Glomerella tucumanensis assessed as growth inhibition at 1200 ug/ml; settings: read-out: IZ
Bacillus subtilis [25] = test: Antibacterial activity against Bacillus subtilis assessed as growth inhibition at 600 ug/ml by NCCLS […] method; settings: read-out: IZ
Streptococcus pyogenes [26] = test: Antibacterial activity against Streptococcus pyogenes assessed as growth inhibition at 600 ug/ml by NCCLS […] method; settings: read-out: IZ
Exserohilum rostratum [27] = test: Antifungal activity against Setosphaeria rostrata assessed as growth inhibition at 300 ug/ml; settings: read-out: IZ
Klebsiella pneumoniae [28] = test: Antibacterial activity against Klebsiella pneumoniae assessed as growth inhibition at 900 ug/ml by NCCLS […] method; settings: read-out: IZ
Proteus vulgaris [29] = test: Antibacterial activity against Proteus vulgaris assessed as growth inhibition at 600 ug/ml by NCCLS […] method; settings: read-out: IZ
Escherichia coli [30] = test: Antibacterial activity against Escherichia coli assessed as growth inhibition at 600 ug/ml by NCCLS […] method; settings: read-out: IZ
Klebsiella aerogenes [31] = test: Antibacterial activity against Enterobacter aerogenes assessed as growth inhibition at 900 ug/ml by NCCLS […] method
Bacillus subtilis [32] = test: Antibacterial activity against Bacillus subtilis assessed as growth inhibition at 900 ug/ml by NCCLS […] method; settings: read-out: IZ
Exserohilum rostratum [33] = test: Antifungal activity against Setosphaeria rostrata assessed as growth inhibition at 1200 ug/ml; settings: read-out: IZ
Colletotrichum falcatum [34] = test: Antifungal activity against Glomerella tucumanensis assessed as growth inhibition at 900 ug/ml; settings: read-out: IZ
Candida albicans [35] = test: Antifungal activity against Candida albicans assessed as growth inhibition at 600 ug/ml; settings: read-out: IZ
Exserohilum rostratum [36] = test: Antifungal activity against Setosphaeria rostrata assessed as growth inhibition at 900 ug/ml; settings: read-out: IZ

Compound | zone of inhibition at 600 µg/mL (Fusarium oxysporum [1]) [mm] | zone of inhibition at 300 µg/mL (Fusarium oxysporum [2]) [mm] | zone of inhibition at 900 µg/mL (Candida albicans [4]) [mm] | zone of inhibition at 900 µg/mL (Fusarium oxysporum [5]) [mm] | zone of inhibition at 900 µg/mL (Proteus mirabilis [6]) [mm] | zone of inhibition at 600 µg/mL (Exserohilum rostratum [7]) [mm] | zone of inhibition at 600 µg/mL (Klebsiella pneumoniae [8]) [mm] | zone of inhibition at 300 µg/mL (Colletotrichum falcatum [9]) [mm] | zone of inhibition at 600 µg/mL (Priestia megaterium [10]) [mm] | zone of inhibition at 600 µg/mL (Colletotrichum falcatum [11]) [mm] | zone of inhibition at 900 µg/mL (Streptococcus pyogenes [12]) [mm] | zone of inhibition at 300 µg/mL (Candida albicans [13]) [mm] | zone of inhibition at 900 µg/mL (Staphylococcus aureus [14]) [mm] | zone of inhibition at 600 µg/mL (Proteus mirabilis [15]) [mm] | zone of inhibition at 600 µg/mL (Staphylococcus aureus [17]) [mm] | zone of inhibition at 900 µg/mL (Proteus vulgaris [19]) [mm] | zone of inhibition at 900 µg/mL (Priestia megaterium [20]) [mm] | zone of inhibition at 900 µg/mL (Escherichia coli [21]) [mm] | zone of inhibition at 1200 µg/mL (Candida albicans [22]) [mm] | zone of inhibition at 1200 µg/mL (Fusarium oxysporum [23]) [mm] | other results
COc1ccc2c(OCCCN3CCN(Cc4ccc(Br)cc4)CC3)c(-c3ccccc3)c(=O)oc2c1 | 6.15 | 3.56 | 10.1 | 14.2 | 5.02 | 8.12 | 2.89 | 5.62 | 6.25 | 9.76 | 13.1 | 3.02 | 8 | 4.28 | 4.25 | 10.2 | 12.1 | 4.01 | 19.6 | 29.4 | zone of inhibition at 600 µg/mL (Klebsiella aerogenes [3]; read-out: IZ): 3.25 mm; growth inhibition (GI) (Bacillus pumilus [16]): inactive; growth inhibition (GI) (Bacillus pumilus [18]): inactive; zone of inhibition at 1200 µg/mL (Colletotrichum falcatum [24]): 33.8 mm; zone of inhibition at 600 µg/mL (Bacillus subtilis [25]): 2.08 mm; zone of inhibition at 600 µg/mL (Streptococcus pyogenes [26]): 6.25 mm; zone of inhibition at 300 µg/mL (Exserohilum rostratum [27]): 4.56 mm; zone of inhibition at 900 µg/mL (Klebsiella pneumoniae [28]): 6.24 mm; zone of inhibition at 600 µg/mL (Proteus vulgaris [29]): 5.02 mm; zone of inhibition at 600 µg/mL (Escherichia coli [30]): 2 mm; zone of inhibition at 900 µg/mL (Klebsiella aerogenes [31]; read-out: IZ): 6.8 mm; zone of inhibition at 900 µg/mL (Bacillus subtilis [32]): 4.16 mm; zone of inhibition at 1200 µg/mL (Exserohilum rostratum [33]): 31.3 mm; zone of inhibition at 900 µg/mL (Colletotrichum falcatum [34]): 19.4 mm; zone of inhibition at 600 µg/mL (Candida albicans [35]): 5.84 mm; zone of inhibition at 900 µg/mL (Exserohilum rostratum [36]): 15.6 mm
COc1ccc2c(OCCCN3CCN(Cc4ccc(F)cc4F)CC3)c(-c3ccccc3)c(=O)oc2c1 | 8.56 | 4.2 | 9.6 | 16.9 | 4.29 | 7.68 | 3.24 | 3.24 | 4.48 | 5.56 | 10.2 | 2.25 | 6.48 | 2.65 | 3.41 | 8.02 | 8.98 | 4.8 | 18.2 | 28.1 | growth inhibition (GI) (Klebsiella aerogenes [3]): inactive; zone of inhibition at 600 µg/mL (Bacillus pumilus [16]; read-out: IZ): 5.02 mm; zone of inhibition at 900 µg/mL (Bacillus pumilus [18]; read-out: IZ): 10.7 mm; zone of inhibition at 1200 µg/mL (Colletotrichum falcatum [24]): 25.9 mm; zone of inhibition at 600 µg/mL (Bacillus subtilis [25]): 5.3 mm; zone of inhibition at 600 µg/mL (Streptococcus pyogenes [26]): 5.3 mm; zone of inhibition at 300 µg/mL (Exserohilum rostratum [27]): 5.02 mm; zone of inhibition at 900 µg/mL (Klebsiella pneumoniae [28]): 6.34 mm; zone of inhibition at 600 µg/mL (Proteus vulgaris [29]): 4.2 mm; zone of inhibition at 600 µg/mL (Escherichia coli [30]): 2.6 mm; growth inhibition (GI) (Klebsiella aerogenes [31]): inactive; zone of inhibition at 900 µg/mL (Bacillus subtilis [32]): 10.7 mm; zone of inhibition at 1200 µg/mL (Exserohilum rostratum [33]): 26.8 mm; zone of inhibition at 900 µg/mL (Colletotrichum falcatum [34]): 13.6 mm; zone of inhibition at 600 µg/mL (Candida albicans [35]): 4.5 mm; zone of inhibition at 900 µg/mL (Exserohilum rostratum [36]): 14.2 mm
